Assay results reported in ChEMBL document CHEMBL4806959, “Antagonistic peptides for frizzled-1 and frizzled-2” (2015).
The source made the active and inactive calls. The calls are words filed in the database; no cut-off is given here. Positions of bridges follow the written chain, without caps; N, C: chain ends. Residues, ends and D or L forms follow the SMILES beside them.

Experiments:
Mus musculus [1] = test: Cardioprotective activity against myocardial infarction Swiss mouse model assessed as EDV_L at 6 ug/kg/day, sc via osmotic pumps for 5 weeks by echocardiographic analysis (reference value: 0.214 +/-0.02 cm3); assay type: functional; conditions: dose 6 µg/kg/day
Frizzled-2 [2] = target: T1, Frizzled-2 (Homo sapiens, UniProt Q14332); test: Antagonist activity at Wnt3a-stimulated frizzled-2 (unknown origin) expressed in human HEK293superTOP flash cells incubated for 24 hrs by luciferase reporter gene assay; assay type: functional, cell-based; conditions: HEK293, filed as antagonist
Mus musculus [3] = test: Cardioprotective activity against myocardial infarction Swiss mouse model assessed as LVAs at 6 ug/kg/day, sc via osmotic pumps for 5 weeks by echocardiographic analysis (reference value: 0.44 +/-0.01 cm2); assay type: functional; conditions: dose 6 µg/kg/day
Mus musculus [4] = test: Cardioprotective activity against myocardial infarction Swiss mouse model assessed as increase in ejection fraction at 6 ug/kg/day, sc via osmotic pumps for 5 weeks by echocardiographic analysis relative to control; assay type: functional; conditions: dose 6 µg/kg/day
[5] = target: Frizzled-2 (Rattus norvegicus) (UniProt Q08464); test: Agonist activity at rat frizzled-2 expressed in human HEK293superTOP flash cells by luciferase reporter gene assay; assay type: cell-based; conditions: HEK293
Mus musculus [6] = test: Cardioprotective activity against myocardial infarction Swiss mouse model assessed as ventricular dilation at 6 ug/kg/day, sc via osmotic pumps for 5 weeks by macroscopic analysis; assay type: functional, organism-based; conditions: dose 6.0 µg/kg/day
[7] = target: Frizzled-5 (Homo sapiens) (UniProt Q13467); test: Antagonist activity at Wnt3a-stimulaed human frizzled-5 expressed in human HEK293superTOP flash cells at 10 nM incubated for 24 hrs by luciferase reporter gene assay; assay type: functional, cell-based; conditions: HEK293
[8] = target: Frizzled-2 (Rattus norvegicus) (UniProt Q08464); test: Agonist activity at rat frizzled-2 expressed in CHO cells by luciferase reporter gene assay; assay type: cell-based
[9] = target: Frizzled-1 (Homo sapiens) (UniProt Q9UP38); test: Antagonist activity at Wnt3a-stimulaed human frizzled-1 expressed in human HEK293superTOP flash cells incubated for 24 hrs by luciferase reporter gene assay; assay type: functional, cell-based; conditions: HEK293, filed as antagonist
[10] = target: Frizzled-5 (Homo sapiens) (UniProt Q13467); test: Antagonist activity at Wnt3a-stimulaed frizzled-5 (unknown origin) expressed in human HEK293superTOP flash cells incubated for 24 hrs by luciferase reporter gene assay; assay type: functional, cell-based; conditions: HEK293
Mus musculus [11] = test: Cardioprotective activity against myocardial infarction Swiss mouse model assessed as ratio of maximum positive slope to pressure of positive slope at 6 ug/kg/day, sc via osmotic pumps for 5 weeks by Millar pressure recording based analysis (reference value: 43.78 +/-1.93 1/sec); assay type: functional; conditions: dose 6 µg/kg/day
[12] = target: T2, Frizzled-4 (Homo sapiens) (UniProt Q9ULV1); test: Antagonist activity at Wnt3a-stimulaed frizzled-4 (unknown origin) expressed in human HEK293superTOP flash cells incubated for 24 hrs by luciferase reporter gene assay; assay type: functional, cell-based; conditions: HEK293
T2 sequence (whole entry): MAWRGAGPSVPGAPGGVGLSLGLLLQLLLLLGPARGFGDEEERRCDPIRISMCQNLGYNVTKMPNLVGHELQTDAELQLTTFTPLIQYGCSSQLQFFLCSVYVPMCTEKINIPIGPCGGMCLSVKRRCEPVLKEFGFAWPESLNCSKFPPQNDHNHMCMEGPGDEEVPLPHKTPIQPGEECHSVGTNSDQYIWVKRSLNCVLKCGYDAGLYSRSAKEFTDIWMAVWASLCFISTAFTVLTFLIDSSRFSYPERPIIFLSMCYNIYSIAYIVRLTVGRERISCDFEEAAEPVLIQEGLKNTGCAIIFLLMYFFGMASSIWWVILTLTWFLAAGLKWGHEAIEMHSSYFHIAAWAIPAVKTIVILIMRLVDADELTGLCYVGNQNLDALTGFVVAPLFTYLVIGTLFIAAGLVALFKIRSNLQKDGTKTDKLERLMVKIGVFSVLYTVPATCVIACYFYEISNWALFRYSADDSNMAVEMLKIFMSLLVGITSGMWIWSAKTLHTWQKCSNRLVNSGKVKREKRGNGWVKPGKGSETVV

[13] = target: Frizzled-1 (Rattus norvegicus) (UniProt Q08463); test: Agonist activity at rat frizzled-1 expressed in CHO cells by luciferase reporter gene assay; assay type: cell-based
[14] = target: Frizzled-1 (Rattus norvegicus) (UniProt Q08463); test: Agonist activity at rat frizzled-1 expressed in African green monkey COS7 cells by luciferase reporter gene assay; assay type: cell-based
Mus musculus [15] = test: Cardioprotective activity against myocardial infarction Swiss mouse model assessed as ESV_L at 6 ug/kg/day, sc via osmotic pumps for 5 weeks by echocardiographic analysis (reference value: 0.179 +/-0.007 cm3); assay type: functional; conditions: dose 6 µg/kg/day
Mus musculus [16] = test: Cardioprotective activity against myocardial infarction Swiss mouse model assessed as increase in myofibroblast number at 6 ug/kg/day, sc via osmotic pumps for 2 weeks by immunohistochemical staining analysis relative to control; assay type: functional; conditions: dose 6 µg/kg/day
Mus musculus [17] = test: Cardioprotective activity against myocardial infarction Swiss mouse model assessed as increase in alpha-SMA gene expression in heart at 6 ug/kg/day, sc via osmotic pumps for 5 weeks by qPCR analysis; assay type: functional, organism-based; conditions: dose 6.0 µg/kg/day
Mus musculus [18] = test: Cardioprotective activity against myocardial infarction Swiss mouse model assessed as reduction in collagen level in infarct area at 6 ug/kg/day, sc via osmotic pumps for 5 weeks by immunohistochemical staining analysis; assay type: functional, organism-based; conditions: dose 6.0 µg/kg/day
Mus musculus [19] = test: Cardioprotective activity against myocardial infarction Swiss mouse model assessed as reduction in wet lung weight at 6 ug/kg/day, sc via osmotic pumps for 5 weeks; assay type: functional, organism-based; conditions: dose 6.0 µg/kg/day
Mus musculus [20] = test: Cardioprotective activity against myocardial infarction Swiss mouse model assessed as reduction in infarct area in heart at 6 ug/kg/day, sc via osmotic pumps for 2 to 5 weeks by immunohistochemical staining analysis; assay type: functional, organism-based; conditions: dose 6.0 µg/kg/day, time 2-5 weeks
Mus musculus [21] = test: Cardioprotective activity against myocardial infarction Swiss mouse model assessed as reduction in infarction expansion in heart at 6 ug/kg/day, sc via osmotic pumps for 5 weeks by macroscopic analysis; assay type: functional, organism-based; conditions: dose 6.0 µg/kg/day
Mus musculus [22] = test: Cardioprotective activity against myocardial infarction Swiss mouse model assessed as LVAd at 6 ug/kg/day, sc via osmotic pumps for 5 weeks by echocardiographic analysis (reference value: 0.5 +/-0.01 cm2); assay type: functional; conditions: dose 6 µg/kg/day
Mus musculus [23] = test: Cardioprotective activity against myocardial infarction Swiss mouse model assessed as ratio of maximum negative slope to pressure of negative slope at 6 ug/kg/day, sc via osmotic pumps for 5 weeks by Millar pressure recording based analysis (reference value: 33.29 +/-1.14 1/sec); assay type: functional; conditions: dose 6 µg/kg/day
Mus musculus [24] = test: Cardioprotective activity against myocardial infarction Swiss mouse model assessed as increase in infarct area thickness in heart at 6 ug/kg/day, sc via osmotic pumps for 2 to 5 weeks by immunohistochemical staining analysis; assay type: functional, organism-based; conditions: dose 6.0 µg/kg/day, time 2-5 weeks
Frizzled-2 [25] = target: T1, Frizzled-2; test: Antagonist activity at frizzled-2 (unknown origin) expressed in human HEK293superTOP flash cells incubated for 24 hrs by luciferase reporter gene assay; assay type: functional, cell-based; conditions: HEK293
Mus musculus [26] = test: Cardioprotective activity against myocardial infarction Swiss mouse model assessed as SV_L at 6 ug/kg/day, sc via osmotic pumps for 5 weeks by echocardiographic analysis (reference value: 0.035 +/-0.005 cm3); assay type: functional; conditions: dose 6 µg/kg/day
[27] = target: Frizzled-2 (Rattus norvegicus) (UniProt Q08464); test: Agonist activity at rat frizzled-2 expressed in African green monkey COS7 cells by luciferase reporter gene assay; assay type: cell-based
Frizzled-2 [28] = target: T1, Frizzled-2; test: Antagonist activity at Wnt3a-stimulaed human frizzled-2 expressed in human HEK293superTOP flash cells incubated for 24 hrs by luciferase reporter gene assay; assay type: functional, cell-based; conditions: HEK293, filed as antagonist
Mus musculus [29] = test: Cardioprotective activity against myocardial infarction Swiss mouse model assessed as increase in myofibroblast number at 6 ug/kg/day, sc via osmotic pumps for 5 weeks by immunohistochemical staining analysis; assay type: functional, organism-based; conditions: dose 6.0 µg/kg/day
Rattus norvegicus = species: Rattus norvegicus; test: Selectivity index, ratio of IC50 for Wnt3a-stimulated rat frizzled-1 expressed in human HEK293superTOPFlash cells to IC50 for Wnt3a-stimulated rat frizzled-2 expressed in human HEK293superTOPFlash cells; assay type: cell-based
Mus musculus [30] = test: Cardioprotective activity against myocardial infarction Swiss mouse model assessed as animal mortality at 6 ug/kg/day, sc via osmotic pumps for 5 weeks (reference value: 35%); assay type: functional; conditions: 840 h, at 6 µg/kg/day
[31] = target: Frizzled-1 (Rattus norvegicus) (UniProt Q08463); test: Agonist activity at rat frizzled-1 expressed in human HEK293superTOP flash cells by luciferase reporter gene assay; assay type: cell-based; conditions: HEK293
[32] = target: Frizzled-1 (Mus musculus) (UniProt O70421); test: Antagonist activity at Wnt3a-stimulaed mouse frizzled-1 expressed in human HEK293superTOP flash cells incubated for 24 hrs by luciferase reporter gene assay; assay type: cell-based; conditions: HEK293, filed as antagonist
[33] = target: T2, Frizzled-4 (Homo sapiens); test: Antagonist activity at Wnt3a-stimulaed human frizzled-4 expressed in human HEK293superTOP flash cells at 10 nM incubated for 24 hrs by luciferase reporter gene assay; assay type: functional, cell-based; conditions: HEK293
[34] = target: Frizzled-2 (Mus musculus) (UniProt Q9JIP6); test: Antagonist activity at Wnt3a-stimulaed mouse frizzled-2 expressed in human HEK293superTOP flash cells incubated for 24 hrs by luciferase reporter gene assay; assay type: cell-based; conditions: HEK293, filed as antagonist
Mus musculus [35] = test: Cardioprotective activity against myocardial infarction Swiss mouse model assessed as increase in amount of blood vessels in heart at 6 ug/kg/day, sc via osmotic pumps for 5 weeks by immunohistochemical staining analysis; assay type: functional, organism-based; conditions: dose 6.0 µg/kg/day
Mus musculus [36] = test: Cardioprotective activity against myocardial infarction Swiss mouse model assessed as increase in alpha-SMA protein expression in heart at 6 ug/kg/day, sc via osmotic pumps for 5 weeks by western blot analysis; assay type: functional, organism-based; conditions: dose 6.0 µg/kg/day
[37] = target: Frizzled-5 (Homo sapiens) (UniProt Q13467); test: Agonist activity at frizzled-5 (unknown origin) expressed in human HEK293superTOP flash cells by luciferase reporter gene assay; assay type: functional, cell-based; conditions: HEK293
[38] = target: T2, Frizzled-4 (Homo sapiens); test: Agonist activity at frizzled-4 (unknown origin) expressed in human HEK293superTOP flash cells by luciferase reporter gene assay; assay type: functional, cell-based; conditions: HEK293

Sequence of Frizzled-5 (Homo sapiens) (Q13467 whole entry): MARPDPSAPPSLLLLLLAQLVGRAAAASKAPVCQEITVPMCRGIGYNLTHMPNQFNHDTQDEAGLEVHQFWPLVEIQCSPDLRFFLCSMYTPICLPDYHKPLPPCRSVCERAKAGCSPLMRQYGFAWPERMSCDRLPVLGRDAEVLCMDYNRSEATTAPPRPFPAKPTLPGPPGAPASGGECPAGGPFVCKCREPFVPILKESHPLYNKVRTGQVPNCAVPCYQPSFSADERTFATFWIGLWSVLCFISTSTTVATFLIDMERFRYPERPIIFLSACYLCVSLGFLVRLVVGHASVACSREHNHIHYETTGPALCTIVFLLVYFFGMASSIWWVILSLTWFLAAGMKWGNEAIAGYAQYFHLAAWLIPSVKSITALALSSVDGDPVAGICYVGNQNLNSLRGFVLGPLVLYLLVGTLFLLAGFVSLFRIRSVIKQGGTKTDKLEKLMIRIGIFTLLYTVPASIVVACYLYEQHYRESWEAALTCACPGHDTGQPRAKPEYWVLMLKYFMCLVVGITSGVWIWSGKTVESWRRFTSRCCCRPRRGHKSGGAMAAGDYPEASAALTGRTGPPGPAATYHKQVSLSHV
Sequence of Frizzled-2 (Rattus norvegicus) (Q08464 29-570 limits assumed): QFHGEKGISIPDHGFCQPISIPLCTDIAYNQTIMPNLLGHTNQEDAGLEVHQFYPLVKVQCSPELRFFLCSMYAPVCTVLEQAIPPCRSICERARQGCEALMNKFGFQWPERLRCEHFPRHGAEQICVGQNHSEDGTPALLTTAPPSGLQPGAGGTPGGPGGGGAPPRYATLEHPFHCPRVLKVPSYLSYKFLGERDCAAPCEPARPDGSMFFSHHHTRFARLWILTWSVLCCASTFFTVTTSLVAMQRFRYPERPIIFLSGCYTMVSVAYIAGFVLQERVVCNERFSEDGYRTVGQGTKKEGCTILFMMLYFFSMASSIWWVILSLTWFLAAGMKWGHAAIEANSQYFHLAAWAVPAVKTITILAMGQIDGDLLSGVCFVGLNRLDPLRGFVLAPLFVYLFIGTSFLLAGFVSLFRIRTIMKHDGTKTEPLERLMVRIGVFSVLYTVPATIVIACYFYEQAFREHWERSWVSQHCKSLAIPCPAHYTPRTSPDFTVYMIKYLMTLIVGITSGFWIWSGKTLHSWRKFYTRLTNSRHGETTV
T1 sequence (Q14332 24-565 limits assumed): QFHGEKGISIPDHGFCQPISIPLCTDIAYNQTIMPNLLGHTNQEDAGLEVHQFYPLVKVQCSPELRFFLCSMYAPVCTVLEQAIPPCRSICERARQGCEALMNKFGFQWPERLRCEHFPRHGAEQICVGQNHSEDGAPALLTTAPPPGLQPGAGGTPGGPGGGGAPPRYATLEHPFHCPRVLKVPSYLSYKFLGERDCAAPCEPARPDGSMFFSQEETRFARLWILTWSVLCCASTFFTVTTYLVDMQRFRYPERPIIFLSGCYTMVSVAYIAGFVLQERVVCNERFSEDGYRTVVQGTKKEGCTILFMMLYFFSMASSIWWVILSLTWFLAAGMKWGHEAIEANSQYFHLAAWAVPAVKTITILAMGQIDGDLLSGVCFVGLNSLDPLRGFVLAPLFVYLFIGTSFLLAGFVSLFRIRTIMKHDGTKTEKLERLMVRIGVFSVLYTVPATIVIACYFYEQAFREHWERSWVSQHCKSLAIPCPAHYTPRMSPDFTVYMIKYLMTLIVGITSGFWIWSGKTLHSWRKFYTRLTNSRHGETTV
Sequence of Frizzled-1 (Rattus norvegicus) (Q08463 whole entry): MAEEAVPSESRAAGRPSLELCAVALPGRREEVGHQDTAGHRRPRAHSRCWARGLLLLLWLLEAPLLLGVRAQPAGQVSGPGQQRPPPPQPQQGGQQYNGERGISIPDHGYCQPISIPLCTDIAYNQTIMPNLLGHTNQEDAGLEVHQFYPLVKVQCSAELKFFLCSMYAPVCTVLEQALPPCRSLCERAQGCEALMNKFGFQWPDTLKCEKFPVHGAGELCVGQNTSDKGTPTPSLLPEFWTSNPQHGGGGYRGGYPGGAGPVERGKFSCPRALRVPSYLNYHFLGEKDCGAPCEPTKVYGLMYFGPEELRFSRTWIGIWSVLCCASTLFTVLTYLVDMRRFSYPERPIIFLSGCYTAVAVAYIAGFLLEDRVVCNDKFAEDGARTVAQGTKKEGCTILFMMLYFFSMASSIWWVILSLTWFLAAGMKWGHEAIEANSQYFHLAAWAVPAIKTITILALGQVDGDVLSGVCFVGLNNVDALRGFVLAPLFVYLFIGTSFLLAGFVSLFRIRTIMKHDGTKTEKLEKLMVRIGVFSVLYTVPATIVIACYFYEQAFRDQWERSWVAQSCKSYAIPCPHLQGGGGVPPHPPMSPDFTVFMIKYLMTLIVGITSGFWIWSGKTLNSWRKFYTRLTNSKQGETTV
Sequence of Frizzled-1 (Mus musculus) (O70421 whole entry, looked up): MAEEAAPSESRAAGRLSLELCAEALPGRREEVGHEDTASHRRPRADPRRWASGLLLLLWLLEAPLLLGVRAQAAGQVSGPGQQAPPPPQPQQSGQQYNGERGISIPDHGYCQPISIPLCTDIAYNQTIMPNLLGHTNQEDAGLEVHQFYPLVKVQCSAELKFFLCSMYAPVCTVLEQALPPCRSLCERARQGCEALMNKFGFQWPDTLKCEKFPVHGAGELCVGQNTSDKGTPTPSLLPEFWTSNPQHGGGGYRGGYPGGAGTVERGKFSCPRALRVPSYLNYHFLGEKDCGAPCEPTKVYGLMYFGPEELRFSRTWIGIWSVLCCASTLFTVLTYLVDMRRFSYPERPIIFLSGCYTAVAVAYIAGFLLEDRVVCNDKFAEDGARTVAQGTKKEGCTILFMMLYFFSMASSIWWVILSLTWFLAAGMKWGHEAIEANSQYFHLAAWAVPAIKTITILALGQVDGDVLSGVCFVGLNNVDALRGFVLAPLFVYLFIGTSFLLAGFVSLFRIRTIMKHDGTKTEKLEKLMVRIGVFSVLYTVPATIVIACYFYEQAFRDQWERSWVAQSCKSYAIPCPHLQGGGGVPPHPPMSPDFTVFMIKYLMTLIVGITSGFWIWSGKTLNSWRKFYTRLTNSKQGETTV
Sequence of Frizzled-2 (Mus musculus) (Q9JIP6 whole entry, looked up): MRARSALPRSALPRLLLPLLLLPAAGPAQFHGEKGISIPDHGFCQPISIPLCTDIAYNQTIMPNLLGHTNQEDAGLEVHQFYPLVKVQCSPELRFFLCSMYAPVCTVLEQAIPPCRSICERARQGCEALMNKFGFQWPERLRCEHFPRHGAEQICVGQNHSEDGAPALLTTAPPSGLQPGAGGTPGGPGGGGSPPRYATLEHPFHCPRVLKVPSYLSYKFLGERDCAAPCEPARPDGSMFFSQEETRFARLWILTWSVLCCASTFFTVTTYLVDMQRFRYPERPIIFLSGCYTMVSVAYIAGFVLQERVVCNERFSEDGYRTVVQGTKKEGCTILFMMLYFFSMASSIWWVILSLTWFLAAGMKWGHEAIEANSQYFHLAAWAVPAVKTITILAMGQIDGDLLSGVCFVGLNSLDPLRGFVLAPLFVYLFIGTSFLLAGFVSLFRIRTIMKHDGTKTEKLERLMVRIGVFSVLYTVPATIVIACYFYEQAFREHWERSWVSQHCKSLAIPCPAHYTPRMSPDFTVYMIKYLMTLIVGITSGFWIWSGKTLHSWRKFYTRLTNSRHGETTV
Sequence of Frizzled-1 (Homo sapiens) (Q9UP38 70-647 limits assumed): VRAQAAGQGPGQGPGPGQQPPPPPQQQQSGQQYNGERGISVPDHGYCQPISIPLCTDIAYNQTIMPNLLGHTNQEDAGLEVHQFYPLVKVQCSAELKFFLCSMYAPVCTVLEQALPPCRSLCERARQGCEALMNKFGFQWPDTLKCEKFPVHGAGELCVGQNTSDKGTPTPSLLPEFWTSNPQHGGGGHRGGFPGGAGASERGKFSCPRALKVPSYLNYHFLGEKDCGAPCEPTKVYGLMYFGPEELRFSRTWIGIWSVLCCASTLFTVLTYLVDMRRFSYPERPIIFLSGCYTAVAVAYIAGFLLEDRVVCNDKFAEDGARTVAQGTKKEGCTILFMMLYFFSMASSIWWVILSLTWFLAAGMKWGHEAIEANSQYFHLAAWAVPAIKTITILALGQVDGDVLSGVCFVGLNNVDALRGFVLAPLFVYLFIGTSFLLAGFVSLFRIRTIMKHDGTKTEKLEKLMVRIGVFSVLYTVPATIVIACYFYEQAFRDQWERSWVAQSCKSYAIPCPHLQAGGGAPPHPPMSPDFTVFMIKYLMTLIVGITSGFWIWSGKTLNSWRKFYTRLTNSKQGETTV

CSCC[C@H](NC(=O)CNC(=O)[C@H](CCC(=O)O)NC(=O)[C@H](CO)NC(=O)[C@@H](NC(=O)[C@H](CCCCN)NC(=O)[C@H](CC(N)=O)NC(=O)[C@H](CS)NC(C)=O)[C@@H](C)O)C(=O)N[C@@H](CC(=O)O)C(=O)NCC(=O)N[C@@H](CS)C(=O)N[C@@H](CCC(=O)O)C(=O)N[C@@H](CC(C)C)C(N)=O (Ac-CNKTSEGMDGCEL-NH2)
Activity (Mus musculus [1]): 0.132 cm3 | inhibition (Frizzled-2 [2]): Dose-Dependent Effect | Activity (Mus musculus [3]): 0.3 cm2 | fold change (FC) (Mus musculus [4]): 2 | Activity [5]: inactive | Activity (Mus musculus [6]): Active | inhibition [7]: inactive | Activity [8]: inactive | inhibition [9]: Active | inhibition [10]: inactive | Activity (Mus musculus [11]): 69.13 s⁻¹ | inhibition [12]: inactive | Activity [13]: inactive | Activity [14]: inactive | Activity (Mus musculus [15]): 0.09 cm3 | fold change (FC) (Mus musculus [16]): >4 | Activity (Mus musculus [17]): Active | Activity (Mus musculus [18]): Active | Activity (Mus musculus [19]): Active | Activity (Mus musculus [20]): Active | Activity (Mus musculus [21]): Active | Activity (Mus musculus [22]): 0.38 cm2 | Activity (Mus musculus [23]): 32.84 s⁻¹ | Activity (Mus musculus [24]): Active | inhibition (Frizzled-2 [25]): inactive | Activity (Mus musculus [26]): 0.041 cm3 | Activity [27]: inactive | inhibition (Frizzled-2 [28]): Active | Activity (Mus musculus [29]): Active | Ratio IC50 (Rattus norvegicus): 100 | mortality at 0.006 mg/kg/day (Mus musculus [30]): 0% | Activity [31]: inactive | inhibition [32]: Active | inhibition [33]: inactive | inhibition [34]: Active | Activity (Mus musculus [35]): Active | Activity (Mus musculus [36]): Active

CSCC[C@@H]1NC(=O)CNC(=O)[C@H](CCC(=O)O)NC(=O)[C@H](CO)NC(=O)[C@H]([C@@H](C)O)NC(=O)[C@H](CCCCN)NC(=O)[C@H](CC(N)=O)NC(=O)[C@@H](NC(C)=O)CSSC[C@@H](C(=O)N[C@@H](CCC(=O)O)C(=O)N[C@@H](CC(C)C)C(N)=O)NC(=O)CNC(=O)[C@H](CC(=O)O)NC1=O (Ac-CNKTSEGMDGCEL-NH2; disulfide 1-11)
Activity [37]: inactive | Activity [38]: inactive

CC(=O)NCC(=O)N[C@@H](CO)C(=O)N[C@@H](CS)C(=O)N[C@@H](CO)C(=O)N[C@@H](CC(C)C)C(=O)N[C@@H](CCCCN)C(=O)N[C@H](C(=O)N[C@@H](CS)C(=O)N[C@@H](Cc1c[nH]c2ccccc12)C(=O)N[C@@H](CC(C)C)C(=O)N[C@@H](CCC(N)=O)C(=O)N[C@@H](CC(C)C)C(=O)N[C@@H](C)C(=O)N[C@@H](CC(=O)O)C(N)=O)[C@@H](C)O (Ac-GSCSLKTCWLQLAD-NH2)
Activity [5]: inactive | Activity [8]: inactive | Activity [13]: inactive | Activity [14]: inactive | Activity [27]: inactive | Activity [31]: inactive
